Test results: ChEMBL document CHEMBL1777712, “The identification of new metallo-β-lactamase inhibitor leads from fragment-based screening” (Bioorg Med Chem Lett, 2011)

How the values were obtained:
[1] = Competitive inhibition of metallo-beta-lactamase IMP-1 expressed in Escherichia coli BL21(DE3) using benzylpenicillin as substrate by 96-well plate assay
[2] = Un-competitive inhibition of metallo-beta-lactamase IMP-1 expressed in Escherichia coli BL21(DE3) using benzylpenicillin as substrate by 96-well plate assay
[3] = Competitive inhibition of metallo-beta-lactamase IMP-1 expressed in Escherichia coli BL21(DE3) using penicillin G as substrate by cuvette assay
[4] = Competitive inhibition of metallo-beta-lactamase IMP-1 expressed in Escherichia coli BL21(DE3) using penicillin G as substrate by 96-well plate assay

SMILES	Ki [1] [µM]	Ki [2] [µM]	Ki [3] [µM]	Ki [4] [µM]
Nc1ccc(C(F)(F)F)cc1N	990	430		
COC(=O)c1cccc(CN)c1	890	410		
OCc1ccc(-n2ccnc2)cc1	> 2000	500		
NC(=O)Cc1ccc(F)cc1Cl	760	680		
Nc1cccc(-c2cccnc2)c1	510	900		
Cn1c(S)nnc1C(F)(F)F	970	> 2000		
OCc1ccc(Cn2ccnc2)cc1	> 2000	790		
Nc1cccc(Cn2ccnc2)c1	1640	780		
Nc1ccc(Cn2ccnc2)cc1	1510	1180		
C[C@H](CS)C(=O)N1CCC[C@H]1C(=O)O [CAPTOPRIL]		> 2000	12.5	7.2
